Results taken from patent publication US20250313560A1, “Novel bicyclic benzylamido pyridine derivatives as SOS1 inhibitors” (Boehringer Ingelheim International GmbH, priority 2024, published 2025).

System: human hepatocytes
Experiment: Metabolic stability in human hepatocytes
Details: 1 μM test compound, 50% human serum, percentage of liver blood flow

Hepatic clearance - QH[%] in human hepatocytes: 25%
Structure (SMILES): C[C@@H](NC(=O)c1cc(N2CCC(N3CCCC(O)CC3)CC2)c2ncnn2c1)c1cccc(C(F)(F)F)c1F (stereo partly shown) [Example E43b]
